Structures can show the parent of a compound that is named as a salt. Where two headings read alike, the source gives them in different places.
Key:
[1] = target: T1, human cloned 5-HT6 receptors (Homo sapiens, UniProt P50406); assay: 5-HT6 binding affinity ([3H]-LSD displacement, membranes of Hela cells expressing human cloned 5-HT6 receptors); conditions: [3H]-LSD 3.0 nM, Hela cell membranes, 120 min at room temperature
T1 construct: expressed in transfected cells; host or cells: HeLa cells (membrane preparation)
Method: The affinity of test compounds for the serotonin 5-T6 receptor is evaluated in the following manner. Cultured Hela cells expressing human cloned 5-HT6 receptors are harvested and centrifuged at low speed (1,000×g) for 10.0 min to remove the culture media. The harvested cells are suspended in half volume of fresh physiological phosphate buffered saline solution and recentrifuged at the same speed. This operation is repeated. The collected cells are then homogenized in ten volumes of 50 mM Tris.HCl (pH 7.4) and 0.5 mM EDTA. The homogenate is centrifuged at 40,000×g for 30.0 min and the precipitate is collected. The obtained pellet is resuspended in 10 volumes of Tris.HCl buffer and recentrifuged at the same speed. The final pellet is suspended in a small volume of Tris.HCl buffer and the tissue protein content is determined in aliquots of 10-25 μl volumes. Bovine Serum Albumin is used as the standard in the protein determination according to the method described in Lowry et al., J. Biol. Chem., 193:265 (1951). The volume of the suspended cell membranes is adjusted to give a tissue protein concentration of 1.0 mg/ml of suspension. The prepared membrane suspension (10 times concentrated) is aliquoted in 1.0 ml volumes and stored at −70° C. until used in subsequent binding experiments.
Binding experiments are performed in a 96 well microtiter plate format, in a total volume of 200 μl. […] The test compounds are added in 20.0 μl volume.
The reaction is allowed to proceed in the dark for 120 min at room temperature, at which time, the bound ligand-receptor complex is filtered off on a 96 well unifilter with a Packard Filtermate® 196 Harvester. The bound complex caught on the filter disk is allowed to air dry and the radioactivity is measured in a Packard TopCount® equipped with six photomultiplier detectors, after the addition of 40.0 μl Microscint®-20 scintillant to each shallow well. The unifilter plate is heat-sealed and counted in a PackardTopCount® with a tritium efficiency of 31.0%.
Binding in the presence of varying concentrations of test compound is expressed as a percentage of specific binding in the absence of test compound. The results are plotted as log % bound versus log concentration of test compound. […] A linear regression line of data points is plotted, from which the IC50 value is determined and the Ki value is determined based upon the following equation: […]
where L is the concentration of the radioactive ligand used and KD is the dissociation constant of the ligand for the receptor, both expressed in nM.

T1 sequence (P50406 whole entry): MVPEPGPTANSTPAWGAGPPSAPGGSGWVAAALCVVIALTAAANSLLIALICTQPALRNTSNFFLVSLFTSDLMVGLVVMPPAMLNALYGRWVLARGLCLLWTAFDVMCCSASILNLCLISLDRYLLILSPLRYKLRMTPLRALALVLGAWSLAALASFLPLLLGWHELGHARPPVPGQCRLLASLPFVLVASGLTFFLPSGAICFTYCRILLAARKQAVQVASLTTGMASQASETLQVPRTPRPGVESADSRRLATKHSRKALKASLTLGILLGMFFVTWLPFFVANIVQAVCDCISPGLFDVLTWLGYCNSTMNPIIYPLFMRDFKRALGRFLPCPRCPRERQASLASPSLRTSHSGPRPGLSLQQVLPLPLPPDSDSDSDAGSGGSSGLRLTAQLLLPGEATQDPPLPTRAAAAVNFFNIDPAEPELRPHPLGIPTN

Structure (SMILES)	Ki ([1]; read-out: 5-HT6 Binding Ki)	also measured
Cc1nc(COc2ccc3c(c2)OC(CNCCCO)CC3)cs1 (centres unmarked) (as salt: HCl) [Example 24, 3-{[7-(2-methyl-thiazol-4-ylmethoxy)-chroman-2-ylmethyl]-amino}-propan-1-ol]		melting point: 123 to 128 °C
CCCCOCCCNCC1CCc2ccc(OCc3ccccc3)cc2O1 (centres unmarked) (as salt: hydrochloride) [Example 8, (7-benzyloxy-chroman-2-ylmethyl)-(3-butoxy-propyl)-amine]		melting point: 130 to 132 °C
OCCNCC1CCc2ccc(OCc3ccccc3)cc2O1 (centres unmarked) (as salt: hydrochloride) [Example 9, 2-[(7-benzyloxy-chroman-2-ylmethyl)-amino]-ethanol]		melting point: 200 to 201 °C
CCCCOCCCNCC1CCc2ccc(OCc3ccccc3)cc2O1 (centres unmarked) [Example 8, (7-benzyloxy-chroman-2-ylmethyl)-(3-butoxy-propyl)-amine]	16 nM	
OCCCNCC1CCc2ccc(OCC3CCCCC3)cc2O1 (centres unmarked) [Example 13, 3-[(7-cyclohexylmethoxy-chroman-2-ylmethyl)-amino]-propan-1-ol]	357 nM	
OCCCNCC1CCc2ccc(OCc3ccccc3Cl)cc2O1 (centres unmarked) [Example 14, 3-{[7-(2-chloro-benzyloxy)-chroman-2-ylmethyl]-amino}-propan-1-ol]	38 nM	
OCCCNCC1CCc2ccc(Oc3ccccc3)cc2O1 (centres unmarked) [Example 15, 3-[(7-phenoxy-chroman-2-ylmethyl)-amino]-propan-1-ol]	283 nM	
OCCCNCC1CCc2ccc(OCCc3ccccc3)cc2O1 (centres unmarked) [Example 22, 3-{[(7-(Phenethyloxy)chroman-2-ylmethyl]amino}propan-1-ol Hydrochloride]	101 nM	
Cc1nc(COc2ccc3c(c2)OC(CNCCCO)CC3)cs1 (centres unmarked) [Example 23, 3-{[7-(2-methyl-thiazol-4-ylmethoxy)-chroman-2-ylmethyl]-amino}-propan-1-ol]		Ki ([1]; 5-HT6 Binding Ki): 41 nM
Cc1nc(COc2ccc3c(c2)OC(CNCCCO)CC3)cs1 (centres unmarked) [Example 24, 3-{[7-(2-methyl-thiazol-4-ylmethoxy)-chroman-2-ylmethyl]-amino}-propan-1-ol]		Ki ([1]; 5-HT6 Binding Ki): 120 nM
OCCCNCC1CCc2cc(Cl)c(OCc3ccccc3)cc2O1 (centres unmarked) [Example 29, 3-{[(7-Benzyloxy)-6-chlorochroman-2-ylmethyl]amino}propan-1-ol Fumaric Acid Salt]	34 nM	
CN(CCCO)CC1CCc2ccc(OCc3ccccc3)cc2O1 (centres unmarked) [Example 30, 3-{[(7-benzyloxy)chroman-2-ylmethyl]methylamino}propan-1-ol Fumaric Acid Salt]	27 nM	
OCCNCC1Cc2ccc(OCc3ccccc3)cc2O1 (centres unmarked) [Example 51, 2-{[6-(Benzyloxy)-2,3-dihydrobenzofuran-2-ylmethyl]amino}ethanol Hydrochloride]	386 nM	

More lines, main results first:

Ki ([1]; read-out: 5-HT6 Binding Ki)	Structure (SMILES)	also measured
15 nM	NCC1CCc2ccc(OCc3ccccc3)cc2O1 (centres unmarked) [Example 6, [(7-Benzyloxy)chroman-2-yl]methylamine Hydrochloride]	
26 nM	c1ccc(CNCC2CCc3ccc(OCc4ccccc4)cc3O2)cc1 (centres unmarked) [Example 7, Benzyl-[(7-benzyloxy)chroman-2-yl]methylamine Hydrochloride]	
12 nM	OCCNCC1CCc2ccc(OCc3ccccc3)cc2O1 (centres unmarked) [Example 9, 2-[(7-benzyloxy-chroman-2-ylmethyl)-amino]-ethanol]	
44 nM	c1ccc(CCCNCC2CCc3ccc(OCc4ccccc4)cc3O2)cc1 (centres unmarked) [Example 10, (7-benzyloxy-chroman-2-ylmethyl)-(3-phenyl-propyl)-amine]	
27 nM	c1ccc(COCCCNCC2CCc3ccc(OCc4ccccc4)cc3O2)cc1 (centres unmarked) [Example 11, (7-benzyloxy-chroman-2-ylmethyl)-(3-benzyloxy-propyl)-amine]	
43 nM	CCCCNCC1CCc2ccc(OCc3ccccc3)cc2O1 (centres unmarked) [Example 12, (7-benzyloxy-chroman-2-ylmethyl)-butyl-amine]	
107 nM	OCCCNCCC1CCc2ccc(OCc3ccccc3)cc2O1 (centres unmarked) [Example 42, 3-{[2-(7-Benzyloxy)chroman-2-yl]ethylamino}propan-1-ol Hydrochloride]	
